Laboratory results from patent US8466188B2, “Use of spiro-oxindole compounds as therapeutic agents” (Xenon Pharmaceuticals Inc., priority 2006, dated 2013).

melting point	Structure (SMILES)
158 to 160 °C	Cl.O=C1N(CCC2CCN(C3CCC3)CC2)c2ccccc2C12COc1cc3c(cc12)OCO3 (stereo not drawn)
168 to 170 °C	Cl.O=C1N(CCC2CCN(C3CCOCC3)CC2)c2ccccc2C12COc1cc3c(cc12)OCO3 (stereo not drawn)
157 to 160 °C	CC(C)N1CCC(CN2C(=O)C3(COc4cc5c(cc43)OCO5)c3cccc(F)c32)CC1.Cl (stereo not drawn)
124 to 126 °C	CC1(C)COc2cc3c(cc21)C1(CO3)C(=O)N(Cc2cccnc2)c2ccccc21.Cl (stereo not drawn)
145 to 147 °C	CC1(C)COc2cc3c(cc21)C1(CO3)C(=O)N(Cc2ccccn2)c2ccccc21.Cl (stereo not drawn)
146 to 150 °C	CN(C)c1ccc(CN2C(=O)C3(COc4cc5c(cc43)OCO5)c3ccccc32)cn1.Cl (stereo not drawn)
185 to 200 °C	Cl.O=C1N(Cc2ccc(N3CCOCC3)nc2)c2ccccc2C12COc1cc3c(cc12)OCO3 (stereo not drawn)
160 to 165 °C	Cl.O=C1N(Cc2ccc(N3CCCC3)nc2)c2ccccc2C12COc1cc3c(cc12)OCO3 (stereo not drawn)
208 to 210 °C	Cl.O=C1N(Cc2ccccn2)c2ccccc2C12COc1cc3c(cc12)CCO3 (stereo not drawn)
150 to 152 °C	Cl.O=C1N(Cc2ccccn2)c2ccccc2C12COc1cc(OC(F)(F)F)ccc12 (stereo not drawn)
151 to 153 °C	Cl.O=C1N(Cc2cccnc2)c2ccccc2C12COc1cc(OC(F)(F)F)ccc12 (stereo not drawn)
> 240 °C	Cl.O=C1N(CCN2CCCCC2)c2ccccc2C12COc1cc3c(cc12)OCO3 (stereo not drawn)
153 to 155 °C	Cl.O=C1N(CCC2CCN(C3CCCC3)CC2)c2ccccc2C12COc1cc3c(cc12)OCO3 (stereo not drawn)
155 to 156 °C	CC(C)N1CCC(CCN2C(=O)C3(COc4cc5c(cc43)OCO5)c3ccccc32)CC1.Cl (stereo not drawn)
98 to 100 °C	Cl.O=C1N(Cc2ccc(C(F)(F)F)o2)c2ccccc2C12COc1ccc(-c3cccnc3)cc12 (stereo not drawn)
166 to 167 °C	COC(=O)c1ccccc1CN1C(=O)C2(COc3cc4c(cc32)OCO4)c2ccccc21 (stereo not drawn) [Example 1.4, methyl 2-[(2′-oxospiro[furo[2,3-f][1,3]benzodioxole-7,3′-indol]-1′(2′H)-yl)methyl]benzoate]
252 °C (dec.)	O=C1Nc2ccccc2C12COc1cc3c(cc12)OCO3 (stereo not drawn) [Example 1.8, spiro[furo[2,3-f][1,3]benzodioxole-7,3′-indol]-2′(1′H)-one]
48 to 50 °C	CCCCCN1C(=O)C2(COc3cc(F)c(F)cc32)c2ccccc21 (stereo not drawn) [Example 1.12, 5,6-difluoro-1′-pentylspiro[1-benzofuran-3,3′-indol]-2′(1′H)-one]

melting point	Structure (SMILES)
74 to 76 °C	CCCCCN1C(=O)C2(COc3cc(F)c(Cl)cc32)c2ccccc21 (stereo not drawn) [Example 1.15, 5-chloro-6-fluoro-1′-pentylspiro[1-benzofuran-3,3′-indol]-2′(1′H)-one]
190 to 192 °C	CC1(C)COc2cc3c(cc21)C1(CO3)C(=O)N(C(c2ccccc2)c2ccccc2)c2ccccc21 (stereo not drawn) [Example 1.20, 1′-(diphenylmethyl)-5,5-dimethyl-5,6-dihydrospiro[benzo[1,2-b:5,4-b′]difuran-3,3′-indol]-2′(1′H)-one]
95 to 100 °C	CC1(C)COc2cc3c(cc21)C1(CO3)C(=O)Nc2ccccc21 (stereo not drawn) [Example 1.21, 5,5-dimethyl-5,6-dihydrospiro[benzo[1,2-b:5,4-b′]difuran-3,3′-indol]-2′(1′H)-one]
106 to 108 °C	CCCCCN1C(=O)C2(COc3cc4c(cc32)OCO4)c2c(Cl)ccc(Cl)c21 (stereo not drawn) [Example 1.22, 4′,7′-dichloro-1′-pentylspiro[furo[2,3-f][1,3]benzodioxole-7,3′-indol]-2′(1′H)-one]
> 200 °C	O=C1N(Cc2ccccn2)c2cccc(Br)c2C12COc1cc3c(cc12)CCO3 (stereo not drawn) [Example 1.25, 4′-bromo-1′-(pyridin-2-ylmethyl)-5,6-dihydrospiro[benzo[1,2-b:5,4-b′]difuran-3,3′-indol]-2′(1′H)-one]
139 to 141 °C	O=C1N(Cc2ccc(C(F)(F)F)o2)c2ccc(F)cc2C12COc1cc3c(cc12)OCO3 (stereo not drawn) [Example 1.26, 5′-fluoro-1′-{[5-(trifluoromethyl)-2-furyl]methyl}spiro[furo[2,3-f][1,3]benzodioxole-7,3′-indol]-2′(1′H)-one]
269 to 271 °C	Cc1ccc2c(c1)C1(COc3cc4c(cc31)OCO4)C(=O)N2 (stereo not drawn) [Example 1.28, 5′-methylspiro[furo[2,3-f][1,3]benzodioxole-7,3′-indol]-2′(1′H)-one]
105 to 107 °C	CCCCCN1C(=O)C2(COc3cc4nc(C)sc4cc32)c2ccccc21 (stereo not drawn) [Example 1.32, 2-methyl-1′-pentylspiro[furo[2,3-f][1,3]benzothiazole-7,3′-indol]-2′(1′H)-one]
143 to 145 °C	O=C1N(Cc2ccc(C(F)(F)F)o2)c2ccccc2C12COc1ccc(Br)cc12 (stereo not drawn) [Example 1.33, 5-bromo-1′-{[5-(trifluoromethyl)-2-furyl]methyl}spiro[1-benzofuran-3,3′-indol]-2′(1′H)-one]
225 to 228 °C	O=C1Nc2ccccc2C12COc1ccc(Br)cc12 (stereo not drawn) [Example 1.34, 5-bromospiro[1-benzofuran-3,3′-indol]-2′(1′H)-one]
180 to 182 °C	O=C1Nc2ccccc2C12COc1cc(OC(F)(F)F)ccc12 (stereo not drawn) [Example 1.36, 6-(trifluoromethoxy)spiro[1-benzofuran-3,3′-indol]-2′(1′H)one]
133 to 134 °C	CCOC(=O)CN1C(=O)C2(COc3cc(F)c(F)cc32)c2c(Br)cccc21 (stereo not drawn) [Example 1.47, ethyl (4′-bromo-5,6-difluoro-2′-oxospiro[1-benzofuran-3,3′-indol]-1′(2′H)-yl)acetate]
208 to 210 °C	O=C1Nc2ccccc2C12COc1cc3c(cc12)CCO3 (stereo not drawn) [Example 1.51, 5,6-dihydrospiro[benzo[1,2-b:5,4-b′]difuran-3,3′-indol]-2′(1′H)-one]
149 to 153 °C	COc1cccc2c1C1(COc3cc4c(cc31)OCO4)C(=O)N2Cc1ccc(C(F)(F)F)o1 (stereo not drawn) [Example 1.53, 4′-methoxy-1′{[5-(trifluoromethyl)-2-furyl]methyl}spiro[furo[2,3-f][1,3]benzodioxole-7,3′-indol]-2′(1′H)-one]
228 to 229 °C	O=C(O)CN1C(=O)C2(COc3cc4c(cc32)CCO4)c2c(Cl)cccc21 (stereo not drawn) [Example 2.2, (4′-chloro-2′-oxo-5,6-dihydrospiro[benzo[1,2-b:5,4-b′]difuran-3,3′-indol]-1′(2′H)-yl)acetic acid]
243 to 245 °C	O=C(CN1C(=O)C2(COc3cc4c(cc32)CCO4)c2c(Cl)cccc21)Nc1ccccc1F (stereo not drawn) [Example 3.6, 2-(4′-chloro-2′-oxo-5,6-dihydrospiro[benzo[1,2-b:5,4-b′]difuran-3,3′-indol]-1′(2′H)-yl)-N-(2-fluorophenyl)acetamide]
229 to 230 °C	O=C(CN1C(=O)C2(COc3cc4c(cc32)CCO4)c2cc(Cl)ccc21)Nc1ccccc1F (stereo not drawn) [Example 3.7, 2-(5′-chloro-2′-oxo-5,6-dihydrospiro[benzo[1,2-b:5,4-b′]difuran-3,3′-indol]-1′(2′H)-yl)-N-(2-fluorophenyl)acetamide]
70 to 75 °C	O=C(CN1C(=O)C2(COc3cc(Cl)ccc32)c2ccccc21)Nc1ccccc1F (stereo not drawn) [Example 3.8, 2-(6-chloro-2′-oxospiro[1-benzofuran-3,3′-indol]-1′(2′H)-yl)-N-(2-fluorophenyl)acetamide]
